The results in this text go back to US20250109139A1, “TRICYCLIC COMPOUND, AND PREPARATION METHOD THEREFOR AND USE THEREOF” (SHANGHAITECH UNIVERSITY, priority 2022, published 2025).

Data set [1] relates to MK801-induced hyperlocomotion in mice. As to the kind of experiment: Open field test, MK801-induced hyperlocomotion (schizophrenia-like model). It counts as in vivo, C57B6 male mice. The settings on record: for inhibition of MK801-induced hyperlocomotion in mice (in words): at different doses. As for the experimental part: Experimental method: The experimental animals were C57B6 male mice, n=8 in each group. In this model, C57B6 mice were used as experimental animals. Hyperlocomotion of the mice in open field was induced by acute injection of a NMDA antagonist MK801, and modeled to test the inhibitory effect of different compounds on hyperlocomotion phenotype induced by MK801 All mouse behavior experiments were carried out during the light period. The whole process was recorded by the camera, and locomotive data were tracked and analyzed by behavioral tracking software. The compounds were administered intraperitoneally. Immediately after the injection, the mice entered the open field and their movement trajectories were recorded by the camera. After 30 minutes, the mice received 0.2 mg/kg of MK801 by intraperitoneal injection and returned to the open field immediately after administration, and the movement trajectories were further recorded for 120 minutes. The accumulative travelled distance of the mice was counted in a 5-minute bin. Data statistics were performed using Student-t-test analysis, *p<0.05, **p<0.01, ***p<0.001, ****p<0.0001. The total travelled distance of the mice in the 0-45 minute interval after administration of the compounds of the present disclosure at different doses in combination with MK801 (0.2 mg/kg) is shown in Table 10.

The nature of data set [2]: Pharmacokinetics in SD rats, single dose intragastric and intravenous. It counts as in vivo. The conditions noted are these: for Vd / AUC(0-t) / clearance / half-life / MRT / Cmax / bioavailability / Tmax: male, rat, plasma; for Vd: read-out: Apparent volume of distribution Vdss; for AUC(0-t): read-out: Area under the drug-time curve AUC0-t; for clearance: read-out: Clearance CL; for half-life: read-out: Elimination half-life t1/2 (converted); for MRT: read-out: Mean residence time MRT; for bioavailability: read-out: Bioavailability F; for Tmax: read-out: Time to peak concentration tmax. Here is the method:
Testing of pharmacokinetic properties of compounds administered in a single dose to SD rats by intragastric administration and intravenous injection
After the compound was administered in a single dose to male SD rats, blood samples were collected at different time points. The concentration of the compound in the plasma of the rats was determined by LC-MS/MS and the relevant pharmacokinetic parameters were calculated to investigate the pharmacokinetics of the compound in rats.
Male SD rats were provided by Suzhou JOINN Laboratories Co., Ltd. SD rats were fasted with free access to water for 12 to 14 hours one day before administration, and were fed 4 hours after administration.
For each compound, the […] were divided into two groups: intravenous injection and intragastric administration, with 3 rats in each group. For both intravenous injection (administered at a dose of 3 mg/kg and a concentration of 0.6 mL/kg) and intragastric administration (administered at a dose of 10 mg/kg and a concentration of 1 mL/kg), 5% DMSO+5% Solutol+90% saline was used as the vehicle.
Sample collection: 0.10 mL of blood was collected from the orbit of each animal in IV/PO groups each time at 5 minutes, 15 minutes, 30 minutes, 1 hour, 2 hours, 4 hours, 6 hours, 8 hours, and 24 hours after administration of the test compound, and anticoagulated with EDTA-K2. Blood samples were placed on ice after collection, and plasma was separated by centrifugation within 30 minutes (centrifugation conditions: 5000 rpm, 10 minutes, 4° C.). The collected plasma was stored at −80° C. before analysis.
Data processing: The data acquisition and control system software was Analyst 1.5.1 software (Applied Biosystem). The peak integration method of chromatographic samples was automatic integration; the ratio of the peak area of the sample to the peak area of the internal standard was used as an index for regression with the concentration of the sample. […] Pharmacokinetic parameters were analyzed with a non-compartmental model using WinNonlin Professional v6.3 (Pharsight, USA). Cmax was the measured maximum plasma concentration, the area under the plasma concentration-time curve AUC(0→t) was calculated by the trapezoidal method, and tmax was the time to peak plasma concentration after administration. Experimental data were presented as “Mean±SD” (n≥3) or “Mean” (n=2).

The next data set has as its target 5-HT2A receptors (Homo sapiens (Human), UniProt P28223). As to the kind of experiment: 5-HT2A receptor radioligand competition binding assay ([3H]-ketanserin). The conditions noted are these: for Ki: read-out: Ki. As for the experimental part:
The affinity of the compounds of the present disclosure for 5-HT2A receptors was determined by a radioligand competition binding assay. In the first step, a cell membrane component containing specific 5-HT2A receptor was prepared. A 10 cm dish was used for transfection with […] of 5-HT2A receptors and 40 μL of PEI. After 48 hours, the 10 cm dish was taken out from the cell incubator and the cultured cells had expressed the 5-HT2A receptors. A vacuum pump was used to suck off the culture medium, 3 mL of lysis buffer was added to each culture dish, and the cells were placed in a 4° C. cold room for 10 minutes. After the cells were detached, the cells were transferred to a 15 mL centrifuge tube and centrifuged at 1500 rpm for 5 minutes at 4° C., and the supernatant was discarded. The cell pellet was transferred to a tissue homogenizer, and 3 mL of lysis buffer was added and fully ground until the cells were broken. Then, cell suspension was equally aliquoted into several EP tubes, centrifuged at 12000 rpm for 5 minutes at 4° C., and the supernatant was discarded. The precipitate was the cell membrane component containing the 5-HT2A receptors. […] First, a standard binding buffer was added to the cell membrane component containing the 5-HT2A receptors, and the cell membrane was disrupted and resuspended with an electric tissue homogenizer. 30 μL of membrane protein suspension was added to each well of a 96-well plate. Then, 30 μL of different drugs were added to the 96-well plate sequentially from bottom to top to ensure that the final drug concentrations were 10^−5 M, 10^−6 M, 10^−7 M, 10^−8 M, 10^−9 M, and 0 M, with two replicates per treatment. Next, 30 μL of [^3H]-ketanserin was added to each well of the 96-well plate. The plate was incubated at room temperature in the dark for 2 hours. Detection was conducted. The machine readout value reflected the amount of [^3H]-ketanserin bound on the membrane, and after further data processing, the affinity Ki values of different compounds for the 5-HT2A receptors were obtained.
A general note: Loss of bound radioactivity is the signal in a displacement assay; it reports binding, not function.

Where [3] appears, read: MK801 0.2 mg/kg + compound 0.25 mg/kg i.p.
The mark [4] stands for this setting: intravenous injection, 3 mg/kg, read-out: Peak drug concentration C0 or Cmax.
The mark [5] stands for this setting: oral administration, 10 mg/kg, read-out: Peak drug concentration Cmax.
The mark [6] stands for this setting: [3H]-ketanserin, 293T membranes.
Setting [7] is: MK801 0.2 mg/kg + compound 0.0156 mg/kg i.p.
The mark [8] stands for this setting: MK801 0.2 mg/kg + compound 0.0625 mg/kg i.p.

Where two headings read alike, the source gives them in different places.

Sequence of 5-HT2A receptors (P28223 whole entry): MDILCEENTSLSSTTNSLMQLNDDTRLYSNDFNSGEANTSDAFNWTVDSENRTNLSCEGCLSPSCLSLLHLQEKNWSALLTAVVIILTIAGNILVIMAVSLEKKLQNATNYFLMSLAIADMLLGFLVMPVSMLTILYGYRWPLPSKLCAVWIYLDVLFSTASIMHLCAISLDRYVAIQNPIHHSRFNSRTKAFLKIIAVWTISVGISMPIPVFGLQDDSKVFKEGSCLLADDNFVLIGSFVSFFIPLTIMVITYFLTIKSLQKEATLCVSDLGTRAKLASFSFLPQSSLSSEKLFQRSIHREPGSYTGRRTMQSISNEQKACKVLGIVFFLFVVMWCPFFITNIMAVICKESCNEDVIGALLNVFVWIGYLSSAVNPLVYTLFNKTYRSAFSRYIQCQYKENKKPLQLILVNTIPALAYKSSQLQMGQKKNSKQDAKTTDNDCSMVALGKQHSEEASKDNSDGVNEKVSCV

One may read the clearance as the volume of plasma or blood freed of the substance per unit of time. What is called MRT is the average time that molecules of a dose stay in the body. Broadly, the Ki is the dissociation constant of the complex between target and ligand, obtained from inhibition or displacement. On to `COc1cccc2c3c([nH]c12)CN(CC[C@H]1CC[C@H](NC(=O)N(C)C)CC1)CC3` [I-B7, 3-(trans-4-(2-(8-methoxy-1,3,4,9-tetrahydro-2H-pyrido[3,4-b]indol-2-yl)ethyl)cyclohexyl)-1,1-dimethylurea], for which, in data set [1] (setting [3]), the “Distance travelled in 45 minutes” value came out at 13668 cm. The “Distance travelled in 45 minutes” value in data set [1] (MK801 0.2 mg/kg + compound 1 mg/kg i.p.) is on record as 10199 cm. For the same molecule, the “Distance travelled in 45 minutes” value in data set [1] (MK801 0.2 mg/kg + compound 4 mg/kg i.p.) worked out at 4360 cm. Also, in data set [1], the “inhibition of MK801-induced hyperlocomotion in mice (in words)” value (shortened to “inhibition”) was “significantly inhibit”. Further, in data set [2] (intravenous injection, 3 mg/kg), the Vd came out at 7.56 ± 0.4 L/kg, the AUC(0-t) turned out to be 2350 ± 127 ng·h/mL, the clearance is 21 ± 1.2 mL/min/kg and the half-life is 3.91 ± 0.3 h. For the same molecule, the MRT in data set [2] (intravenous injection, 3 mg/kg) was 6.01 ± 0.2 h. Moreover, in data set [2] (setting [4]), the Cmax was 330 ± 61 ng/mL. For the same molecule, in data set [2] (oral administration, 10 mg/kg), the AUC(0-t) was determined as 10200 ± 945 ng·h/mL, the bioavailability worked out at 128 ± 12%, the half-life was 5.12 ± 0.7 h and the mean residence time (MRT) turned out to be 8.08 ± 0.23 h. Further, the Tmax in data set [2] (oral administration, 10 mg/kg) is 3.17 ± 4 h. In addition, the Cmax in data set [2] (setting [5]) was found to be 734 ± 34 ng/mL. Moreover, at 5-HT2A receptors, the “affinity for 5-HT2A receptors (in words)” value is recorded as “very weak affinity”. Also, the Ki at 5-HT2A receptors (setting [6]) turned out to be 3510 nM.

Turning to `COc1cccc2c3c(oc12)CN(CCCCOc1ccc2ccc(=O)[nH]c2c1)CC3` [I-A1, 7-(4-(8-methoxy-3,4-dihydrobenzofuro[2,3-c]pyridin-2(1H)-yl)butoxy)quinolin-2(1H)-one], the “Distance travelled in 45 minutes” value in data set [1] (setting [7]) is reported as 9023 cm. Also, the “Distance travelled in 45 minutes” value in data set [1] (setting [8]) turned out to be 10706 cm. The “Distance travelled in 45 minutes” value in data set [1] (setting [3]) stood at 3630 cm. Also, the “inhibition” value in data set [1] is reported as “significantly inhibit”. Moreover, in data set [2] (intravenous injection, 3 mg/kg), the “Area under the drug-time curve AUC0-t” value was found to be 2991 ± 212 ng·h/mL, the “Clearance CL” value turned out to be 16.7 ± 1.12 mL/min/kg and the “Elimination half-life t1/2” value is reported as 3.48 ± 0.1 h. The Cmax in data set [2] (setting [4]) was found to be 1330 ± 117 ng/mL. In data set [2] (oral administration, 10 mg/kg), the half-life is 3.91 ± 0.3 h, the “Area under the drug-time curve AUC0-t” value came to 8916 ± 3642 ng·h/mL, the “Bioavailability F” value is on record as 88.8 ± 36% and the “Peak drug concentration Cmax” value was determined as 1555 ± 362 ng/mL. In addition, in data set [2] (oral administration, 10 mg/kg), the “Time to peak concentration tmax” value amounted to 0.50 ± 0 h. In addition, the “affinity for 5-HT2A receptors (in words)” value at 5-HT2A receptors is “very weak affinity”. Further, at 5-HT2A receptors (setting [6]), the “pKi ± SEM” value is listed as “(5.74 ± 0.03)” and the Ki stood at 1790 nM.

For the molecule `COc1cccc2c1cc1n2CCN(CCCCOc2ccc3ccc(=O)[nH]c3c2)C1` [I-C1, 7-(4-(9-methoxy-3,4-dihydropyrazino[1,2-a]indol-2(1H)-yl)butoxy)quinolin-2(1H)-one], in data set [2] (intravenous injection, 3 mg/kg), the Vd turned out to be 2.16 ± 0.1 L/kg, the AUC(0-t) came to 4970 ± 751 ng·h/mL, the clearance was 10.1 ± 1.4 mL/min/kg and the half-life is 3.63 ± 0.7 h. For the same molecule, the MRT in data set [2] (intravenous injection, 3 mg/kg) was 3.58 ± 0.3 h. Moreover, the Cmax in data set [2] (setting [4]) stood at 3310 ± 349 ng/mL. In data set [2] (oral administration, 10 mg/kg), the AUC(0-t) was 8140 ± 2050 ng·h/mL, the bioavailability came to 48.8%, the half-life was 7.36 ± 4.2 h and the MRT amounted to 10 ± 6.5 h. In addition, the Tmax in data set [2] (oral administration, 10 mg/kg) turned out to be 0.25 h. Moreover, in data set [2] (setting [5]), the Cmax turned out to be 1150 ± 198 ng/mL.

Take `COc1cccc2c1cc1n2CCN(CCCCOc2ccc3c(c2)NC(=O)CC3)C1` [I-C2, 7-(4-(9-methoxy-3,4-dihydropyrazino[1,2-a]indol-2(1H)-yl)butoxy)-3,4-dihydroquinolin-2(1H)-one]: in data set [2] (intravenous injection, 3 mg/kg), the Vd was found to be 1.51 ± 0.3 L/kg, the AUC(0-t) is 2790 ± 842 ng·h/mL, the clearance was 19.1 ± 6.8 mL/min/kg and the half-life was 1.79 ± 1.1 h. In addition, the MRT in data set [2] (intravenous injection, 3 mg/kg) was found to be 1.38 ± 0.3 h. In addition, the Cmax in data set [2] (setting [4]) worked out at 3340 ± 629 ng/mL. In data set [2] (oral administration, 10 mg/kg), the AUC(0-t) stood at 7730 ± 467 ng·h/mL, the bioavailability amounted to 82.4 ± 5%, the half-life is 4.09 ± 1.6 h and the MRT came to 5.46 ± 0.09 h. Further, the Tmax in data set [2] (oral administration, 10 mg/kg) is 0.33 ± 0.14 h. Also, in data set [2] (setting [5]), the Cmax was 1310 ± 701 ng/mL.

`COc1cccc2c3c(oc12)CN(CC[C@H]1CC[C@H](NC(=O)N(C)C)CC1)CC3` [I-A12, 3-(trans-4-(2-(8-methoxy-3,4-dihydrobenzofuro[2,3-c]pyridin-2(1H)-yl)ethyl)cyclohexyl)-1,1-dimethylurea]: the “Distance travelled in 45 minutes” value in data set [1] (setting [7]) is 12729 cm. Also, in data set [1] (setting [8]), the “Distance travelled in 45 minutes” value is given as 5648 cm. Also, in data set [1] (setting [3]), the “Distance travelled in 45 minutes” value is on record as 2267 cm. Besides, the “inhibition” value in data set [1] was “significantly inhibit”. Also, in data set [2] (intravenous injection, 3 mg/kg), the Vd is 9.14 ± 1.5 L/kg, the AUC(0-t) turned out to be 1100 ± 215 ng·h/mL, the clearance was determined as 45.4 ± 7.9 mL/min/kg and the half-life was 4.14 ± 0.7 h. Further, the mean residence time MRT in data set [2] (intravenous injection, 3 mg/kg) was 3.36 ± 0.2 h. In addition, the Cmax in data set [2] (setting [4]) was 824 ± 299 ng/mL. In addition, in data set [2] (oral administration, 10 mg/kg), the AUC(0-t) was found to be 5660 ± 2660 ng·h/mL, the bioavailability was found to be 151 ± 71%, the half-life was 3.58 ± 0.5 h and the mean residence time MRT was determined as 4.42 ± 0.66 h. Also, the Tmax in data set [2] (oral administration, 10 mg/kg) is 0.833 ± 1 h. Also, the Cmax in data set [2] (setting [5]) is 963 ± 322 ng/mL.
